# Data: patent US9708318B2, “Bicyclic heterocycles as FGFR4 inhibitors” (Incyte Corporation, priority 2015, dated 2017)
# Like-named read-outs stand apart in the source and are kept apart here.
# Assays:
# [1] = target: FGFR3 enzyme (Homo sapiens (Human), UniProt P22607); assay: FGFR Enzymatic Assay (FRET peptide phosphorylation), FGFR3; format: biochemical; conditions: for FGFR1/FGFR3 IC50 ratio / FGFR4/FGFR3 IC50 ratio: FGFR3 selectivity
# Description: (§1) The inhibitor potency of the exemplified compounds was measured in an enzyme assay that measures peptide phosphorylation using FRET measurements to detect product formation. Inhibitors were serially diluted in DMSO and a volume of 0.5 μL was transferred to the wells of a 384-well plate.
# (§2) GraphPad prism3 was used to analyze the data.
# [2] = target: FGFR4 (Homo sapiens (Human), UniProt P22455); assay: FGFR Enzymatic Assay (FRET peptide phosphorylation), FGFR4; format: biochemical; conditions: for FGFR1/FGFR4 IC50 ratio / FGFR2/FGFR4 IC50 ratio / FGFR3/FGFR4 IC50 ratio: FGFR4 selectivity
# Description: as §1
# (§3) The enzymes were purchased from Millipore or Invitrogen.
# as §2
# [3] = target: FGFR2 (Homo sapiens (Human), UniProt P21802); assay: FGFR Enzymatic Assay (FRET peptide phosphorylation), FGFR2; format: biochemical
# Description: as §1, §3, §2
# [4] = target: FGFR1 (Homo sapiens (Human), UniProt P11362); assay: FGFR Enzymatic Assay (FRET peptide phosphorylation), FGFR1
# [5] = pre-incubated for 4 hours, read-out: FGFR3 IC50
# [6] = FGFR1 IC50 (nM), pre-incubated for 4 hours
# [7] = read-out: FGFR1 IC50, pre-incubated for 4 hours
# [8] = pre-incubated for 5 to 10 minutes, read-out: FGFR3 IC50
# [9] = pre-incubated for 5 to 10 minutes
# [10] = read-out: FGFR1 IC50, pre-incubated for 5 to 10 minutes
# Sequence of FGFR2 (P21802 22-821): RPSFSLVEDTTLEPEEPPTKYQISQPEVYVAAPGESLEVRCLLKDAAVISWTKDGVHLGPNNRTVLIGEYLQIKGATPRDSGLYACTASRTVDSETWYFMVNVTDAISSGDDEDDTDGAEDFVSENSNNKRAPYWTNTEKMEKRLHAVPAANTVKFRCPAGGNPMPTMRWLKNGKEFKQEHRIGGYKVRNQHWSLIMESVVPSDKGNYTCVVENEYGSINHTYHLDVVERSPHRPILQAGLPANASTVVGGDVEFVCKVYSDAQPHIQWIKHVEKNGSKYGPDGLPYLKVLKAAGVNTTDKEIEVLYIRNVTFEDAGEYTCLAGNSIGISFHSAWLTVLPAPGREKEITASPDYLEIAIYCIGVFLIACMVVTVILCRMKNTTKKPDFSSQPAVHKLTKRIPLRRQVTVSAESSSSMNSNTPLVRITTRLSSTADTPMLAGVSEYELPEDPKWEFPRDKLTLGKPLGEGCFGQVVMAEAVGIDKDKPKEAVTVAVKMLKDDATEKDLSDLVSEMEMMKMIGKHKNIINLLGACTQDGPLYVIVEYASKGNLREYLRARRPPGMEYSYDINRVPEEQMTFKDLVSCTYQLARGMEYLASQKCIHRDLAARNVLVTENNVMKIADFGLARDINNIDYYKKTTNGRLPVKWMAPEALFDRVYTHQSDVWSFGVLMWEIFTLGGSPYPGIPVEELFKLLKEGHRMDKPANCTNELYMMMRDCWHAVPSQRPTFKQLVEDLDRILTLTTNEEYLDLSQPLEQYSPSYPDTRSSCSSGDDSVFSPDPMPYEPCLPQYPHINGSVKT
# Sequence of FGFR1 (P11362 22-822): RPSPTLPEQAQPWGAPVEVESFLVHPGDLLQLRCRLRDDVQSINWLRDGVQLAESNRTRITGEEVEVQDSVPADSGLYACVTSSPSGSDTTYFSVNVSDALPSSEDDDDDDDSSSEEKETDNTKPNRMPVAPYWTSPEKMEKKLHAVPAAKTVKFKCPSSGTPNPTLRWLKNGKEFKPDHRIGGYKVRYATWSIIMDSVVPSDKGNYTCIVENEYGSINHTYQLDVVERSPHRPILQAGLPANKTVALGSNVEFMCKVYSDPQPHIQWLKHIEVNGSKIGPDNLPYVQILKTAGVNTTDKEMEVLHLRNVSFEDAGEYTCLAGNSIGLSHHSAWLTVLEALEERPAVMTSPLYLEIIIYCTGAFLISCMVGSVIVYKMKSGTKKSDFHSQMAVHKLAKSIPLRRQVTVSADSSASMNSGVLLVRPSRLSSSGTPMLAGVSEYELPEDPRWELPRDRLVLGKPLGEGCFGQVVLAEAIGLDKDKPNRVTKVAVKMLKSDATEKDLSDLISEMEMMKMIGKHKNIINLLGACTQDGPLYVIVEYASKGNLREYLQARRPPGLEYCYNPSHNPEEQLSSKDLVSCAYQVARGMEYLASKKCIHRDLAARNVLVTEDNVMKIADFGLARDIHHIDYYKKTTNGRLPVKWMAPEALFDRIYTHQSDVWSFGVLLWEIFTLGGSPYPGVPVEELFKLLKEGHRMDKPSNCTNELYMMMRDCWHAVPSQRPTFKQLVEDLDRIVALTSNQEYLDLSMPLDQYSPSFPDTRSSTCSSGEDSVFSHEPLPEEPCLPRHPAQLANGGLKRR
# Sequence of FGFR4 (P22455 22-802): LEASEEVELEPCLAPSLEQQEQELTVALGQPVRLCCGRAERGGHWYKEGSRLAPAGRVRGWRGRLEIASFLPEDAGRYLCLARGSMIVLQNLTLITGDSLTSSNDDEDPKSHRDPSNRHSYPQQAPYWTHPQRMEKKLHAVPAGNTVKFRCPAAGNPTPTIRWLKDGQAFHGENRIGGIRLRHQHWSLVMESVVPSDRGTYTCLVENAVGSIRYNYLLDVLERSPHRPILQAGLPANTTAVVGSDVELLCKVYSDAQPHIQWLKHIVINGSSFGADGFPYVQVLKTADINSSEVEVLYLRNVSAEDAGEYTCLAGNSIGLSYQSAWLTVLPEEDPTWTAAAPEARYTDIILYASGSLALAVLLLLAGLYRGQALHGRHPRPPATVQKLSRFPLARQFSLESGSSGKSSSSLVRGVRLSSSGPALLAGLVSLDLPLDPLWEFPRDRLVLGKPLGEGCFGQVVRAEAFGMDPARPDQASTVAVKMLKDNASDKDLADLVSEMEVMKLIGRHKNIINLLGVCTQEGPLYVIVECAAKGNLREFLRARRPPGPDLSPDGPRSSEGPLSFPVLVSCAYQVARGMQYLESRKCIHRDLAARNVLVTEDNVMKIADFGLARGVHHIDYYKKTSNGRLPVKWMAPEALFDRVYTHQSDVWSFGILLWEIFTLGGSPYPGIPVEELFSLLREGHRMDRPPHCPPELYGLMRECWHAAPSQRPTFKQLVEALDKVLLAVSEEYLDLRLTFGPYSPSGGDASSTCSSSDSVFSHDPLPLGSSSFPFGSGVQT
# Sequence of FGFR3 enzyme (P22607 23-806): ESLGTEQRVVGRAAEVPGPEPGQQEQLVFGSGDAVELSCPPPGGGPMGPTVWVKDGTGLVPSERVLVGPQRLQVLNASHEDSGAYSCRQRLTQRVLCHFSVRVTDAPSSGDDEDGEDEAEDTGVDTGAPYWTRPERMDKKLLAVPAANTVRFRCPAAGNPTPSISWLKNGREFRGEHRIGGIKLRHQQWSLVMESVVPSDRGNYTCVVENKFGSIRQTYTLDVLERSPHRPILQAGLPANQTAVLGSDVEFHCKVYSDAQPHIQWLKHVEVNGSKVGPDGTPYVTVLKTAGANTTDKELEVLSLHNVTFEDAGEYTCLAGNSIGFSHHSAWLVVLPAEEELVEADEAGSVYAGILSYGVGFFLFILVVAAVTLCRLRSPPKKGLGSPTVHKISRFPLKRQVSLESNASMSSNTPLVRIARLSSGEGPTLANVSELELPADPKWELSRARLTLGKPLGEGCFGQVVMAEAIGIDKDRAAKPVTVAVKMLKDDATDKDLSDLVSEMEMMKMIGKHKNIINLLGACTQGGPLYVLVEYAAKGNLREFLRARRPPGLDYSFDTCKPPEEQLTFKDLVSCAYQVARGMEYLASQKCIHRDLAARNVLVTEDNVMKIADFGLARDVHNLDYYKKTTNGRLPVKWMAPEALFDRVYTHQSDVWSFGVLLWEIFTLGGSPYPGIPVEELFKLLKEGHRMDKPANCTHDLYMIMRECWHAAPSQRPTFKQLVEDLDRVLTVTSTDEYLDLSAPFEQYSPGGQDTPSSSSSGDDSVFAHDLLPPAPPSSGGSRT
Compound,FGFR1/FGFR3 IC50 ratio ([1]; pre-incubated for 4 hours),FGFR4/FGFR3 IC50 ratio ([1]; pre-incubated for 4 hours),"IC50 [1, 5]",IC50 ([2]; pre-incubated for 4 hours),IC50 ([3]; pre-incubated for 4 hours),"IC50 [4, 6]",other results
"COc1cc(OC)c(F)c(N2Cc3cnc(-c4cn(C)nc4C)cc3N(c3ccc(C#N)cn3)C2=O)c1F [Example 79, 6-(3-(2,6-difluoro-3,5-dimethoxyphenyl)-7-(1,3-dimethyl-1H-pyrazol-4-yl)-2-oxo-3,4-dihydropyrido[4,3-d]pyrimidin-1(2H)-yl)nicotinonitrile]",>5,>3,< 10 nM,30 to 200 nM,< 10 nM,30 to 200 nM,
"COc1cc(OC)c(F)c(N2Cc3cnc(-c4cnn(CCN5CCOCC5)c4)cc3C3(CC3)C2=O)c1F [Example 157, 2′-(2,6-difluoro-3,5-dimethoxyphenyl)-6′-(1-(2-morpholinoethyl)-1H-pyrazol-4-yl)-1′H-spiro[cyclopropane-1,4′-[2,7]naphthyridin]-3′(2′H)-one]",>5,>3,< 10 nM,< 10 nM,< 10 nM,10 to 30 nM,
"COc1cc(OC)c(F)c(N2Cc3cnc(-c4cn(C)nc4C)cc3N(C3CCN(S(C)(=O)=O)CC3)C2=O)c1F [Example 71, 3-(2,6-difluoro-3,5-dimethoxyphenyl)-7-(1,3-dimethyl-1H-pyrazol-4-yl)-1-(1-(methylsulfonyl)piperidin-4-yl)-3,4-dihydropyrido[4,3-d]pyrimidin-2(1H)-one]",>5,>3,,30 to 200 nM,30 to 200 nM,,IC50 [1]: 10 to 30 nM; IC50 [4]: 30 to 200 nM
"COc1cc(OC)c(F)c(N2Cc3cnc(-c4cn(C)nc4C)cc3N(c3ccc4nc(C)oc4c3)C2=O)c1F [Example 75, 3-(2,6-difluoro-3,5-dimethoxyphenyl)-7-(1,3-dimethyl-1H-pyrazol-4-yl)-1-(2-methylbenzo[d]oxazol-6-yl)-3,4-dihydropyrido[4,3-d]pyrimidin-2(1H)-one]",>5,>3,10 to 30 nM,30 to 200 nM,30 to 200 nM,30 to 200 nM,
"COc1cc(OC)c(F)c(N2Cc3cnc(-c4cn(C)nc4C)cc3N(C3CCOC3)C2=O)c1F (stereo not shown) [Example 33, 3-(2,6-difluoro-3,5-dimethoxyphenyl)-7-(1,3-dimethyl-1H-pyrazol-4-yl)-1-(tetrahydrofuran-3-yl)-3,4-dihydropyrido[4,3-d]pyrimidin-2(1H)-one]",>5,>5,< 10 nM,30 to 200 nM,< 10 nM,30 to 200 nM,
"CCn1cc(-c2cc3c(cn2)CN(c2c(F)c(OC)cc(OC)c2F)C(=O)C32CC2)c(C)n1 [Example 158, 2′-(2,6-difluoro-3,5-dimethoxyphenyl)-6′-(1-ethyl-3-methyl-1H-pyrazol-4-yl)-1′H-spiro[cyclopropane-1,4′-[2,7]naphthyridin]-3′(2′H)-one]",>5,>3,< 10 nM,10 to 30 nM,< 10 nM,30 to 200 nM,
"COc1cc(OC)c(F)c(N2Cc3cnc(-c4cn(C)nc4C)cc3N(Cc3cccnn3)C2=O)c1F [Example 88, 3-(2,6-difluoro-3,5-dimethoxyphenyl)-7-(1,3-dimethyl-1H-pyrazol-4-yl)-1-(pyridazin-3-ylmethyl)-3,4-dihydropyrido[4,3-d]pyrimidin-2(1H)-one]",>5,>10,< 10 nM,< 10 nM,< 10 nM,,"IC50 [4, 7]: < 10 nM"
"COc1cc(OC)c(F)c(N2Cc3cnc(-c4cnn(CC5CCCS(=O)(=O)N5)c4)cc3C3(CC3)C2=O)c1F (stereo not shown) [Example 162, 2′-(2,6-difluoro-3,5-dimethoxyphenyl)-6′-{1-[(1,1-dioxido-1,2-thiazinan-3-yl)methyl]-1H-pyrazol-4-yl}-1′H-spiro[cyclopropane-1,4′-[2,7]naphthyridin]-3′(2′H)-one]",>5,>1,< 10 nM,< 10 nM,< 10 nM,10 to 30 nM,
"CCN1C(=O)N(c2c(F)c(OC)cc(OC)c2F)Cc2cnc(-c3cccnc3)cc21 [Example 23, 3-(2,6-difluoro-3,5-dimethoxyphenyl)-1-ethyl-7-(pyridin-3-yl)-3,4-dihydropyrido[4,3-d]pyrimidin-2(1H)-one]",>5,,< 10 nM,< 10 nM,< 10 nM,30 to 200 nM,
"COc1cc(OC)c(F)c(N2Cc3cnc(-c4cc(N)ccc4C#N)cc3C3(CC3)C2=O)c1F [Example 3, 4-amino-2-(2′-(2,6-difluoro-3,5-dimethoxyphenyl)-3′-oxo-2′,3′-dihydro-1′H-spiro[cyclopropane-1,4′-[2,7]naphthyridine]-6′-yl)benzonitrile]",,,> 200 nM,10 to 30 nM,> 200 nM,,"IC50 [1, 8]: > 200 nM; FGFR1/FGFR4 IC50 ratio [2, 9]: >25; FGFR2/FGFR4 IC50 ratio [2, 9]: >25; FGFR3/FGFR4 IC50 ratio [2, 9]: >25; FGFR1/FGFR4 IC50 ratio ([2]; pre-incubated for 4 hours): >25; FGFR2/FGFR4 IC50 ratio ([2]; pre-incubated for 4 hours): >25; FGFR3/FGFR4 IC50 ratio ([2]; pre-incubated for 4 hours): >10; IC50 [2, 9]: 10 to 30 nM; IC50 [3, 9]: > 200 nM; IC50 [4, 10]: > 200 nM; IC50 [4, 7]: > 200 nM"
"COc1ccc(N2C(=O)N(c3c(F)c(OC)cc(OC)c3F)Cc3cnc(-c4cn(C)nc4C)cc32)cc1 [Example 104, 3-(2,6-difluoro-3,5-dimethoxyphenyl)-7-(1,3-dimethyl-1H-pyrazol-4-yl)-1-(4-methoxyphenyl)-3,4-dihydropyrido[4,3-d]pyrimidin-2(1H)-one]",>3,>5,< 10 nM,30 to 200 nM,< 10 nM,10 to 30 nM,
"COc1cc(OC)c(F)c(N2Cc3cnc(-c4ccc(C5(C#N)CCC5)nc4)cc3N(c3cccnc3)C2=O)c1F [Example 138, 1-(5-(3-(2,6-difluoro-3,5-dimethoxyphenyl)-2-oxo-1-(pyridin-3-yl)-1,2,3,4-tetrahydropyrido[4,3-d]pyrimidin-7-yl)pyridin-2-yl)cyclobutanecarbonitrile]",,,,,,,"IC50 [1, 8]: 10 to 30 nM; IC50 [2, 9]: 30 to 200 nM; IC50 [3, 9]: 10 to 30 nM; IC50 ([4]; FGFR1 IC50 (nM), pre-incubated for 5 to 10 minutes): 30 to 200 nM"
"COc1cc(OC)c(F)c(N2Cc3cnc(-c4cc(N)c(F)cc4C)cc3C3(CC3)C2=O)c1F [Example 2, 6′-(5-amino-4-fluoro-2-methylphenyl)-2′-(2,6-difluoro-3,5-dimethoxyphenyl)-1′H-spiro[cyclopropane-1,4′-[2,7]naphthyridin]-3′(2′H)-one]",,,> 200 nM,30 to 200 nM,> 200 nM,,"IC50 [1, 8]: > 200 nM; FGFR1/FGFR4 IC50 ratio [2, 9]: >10; FGFR2/FGFR4 IC50 ratio [2, 9]: >10; FGFR3/FGFR4 IC50 ratio [2, 9]: >10; FGFR1/FGFR4 IC50 ratio ([2]; pre-incubated for 4 hours): >10; FGFR2/FGFR4 IC50 ratio ([2]; pre-incubated for 4 hours): >10; FGFR3/FGFR4 IC50 ratio ([2]; pre-incubated for 4 hours): >10; IC50 [2, 9]: 30 to 200 nM; IC50 [3, 9]: > 200 nM; IC50 [4, 10]: > 200 nM; IC50 [4, 7]: > 200 nM"
"COc1cnc(N2C(=O)N(c3c(F)c(OC)cc(OC)c3F)Cc3cnc(-c4cn(C)nc4C)cc32)cn1 [Example 112, 3-(2,6-difluoro-3,5-dimethoxyphenyl)-7-(1,3-dimethyl-1H-pyrazol-4-yl)-1-(5-methoxypyrazin-2-yl)-3,4-dihydropyrido[4,3-d]pyrimidin-2(1H)-one]",>3,>5,< 10 nM,30 to 200 nM,< 10 nM,30 to 200 nM,
"COc1cc(OC)c(F)c(N2Cc3cnc(-c4cn(C)nc4C)cc3N(Cc3cnccn3)C2=O)c1F [Example 85, 3-(2,6-difluoro-3,5-dimethoxyphenyl)-7-(1,3-dimethyl-1H-pyrazol-4-yl)-1-(pyrazin-2-ylmethyl)-3,4-dihydropyrido[4,3-d]pyrimidin-2(1H)-one]",>5,>10,< 10 nM,30 to 200 nM,10 to 30 nM,30 to 200 nM,
